row,SMILES,melting point [°C]
1,c1csc(-c2nc3ccc(N4CCC(N5CCCC5)CC4)nn3c2-c2ccncc2)c1,85
2,O=C(NCCCc1ccncc1)N1CCc2ccccc2C1,76 to 79
3,C=C(CCC)C(=O)c1ccc(OC2(C(=O)O)CCC2)c(Cl)c1Cl,105 to 106
4,O=C(Cc1cccc(O)c1)NNC(=O)c1ccc(O)c([N+](=O)[O-])c1,190 to 193
5,O=C(Nc1ccccc1S(=O)(=O)NCC1CCCCC1)N[C@@H](Cc1ccc(NC(=O)c2c(Cl)cccc2Cl)cc1)C(=O)O,185
6,C=CC(=O)OC(C#N)Cc1ccc(OC)c(OC)c1 (stereo not drawn),154 to 156
7,CCOc1ccc(C(=O)CC(C(=O)O)N2CCOCC2)cc1OC (stereo not drawn),157
8,CCCCOC(=O)[C@H]1CN(c2ccc3c(c2)oc(=O)n3CC)C(=O)O1,155 to 157
9,CC(C)(C)c1ccc(C(=O)Nc2cn3cc(-c4ccoc4)ccc3n2)cc1,258 to 259
10,COc1ccc(NC(=O)c2ccc(Cl)c(Cl)c2)cc1Nc1cccc(C(F)(F)F)c1,151 to 152
11,CC(C)c1ccc(S(=O)(=O)n2c(Cc3ccc(C(=O)O)cc3)cc3cc(C(F)(F)F)ccc32)cc1,227
12,COc1cc2c(c3c1OC(C)(C)C3)C(c1ccn(-c3cc(C(N)=O)ccn3)c(=O)c1)=NC(C)(C)C2,174 to 175
13,NS(=O)(=O)c1ccc(-c2cc3cccccc-3c2-c2ccccc2)cc1,169 to 170
14,Cc1ncncc1NC(=O)Nc1ccc(-n2nc(C(F)(F)F)cc2C2CC2)c(F)c1,198 to 202
15,CC(C)(C)OC(=O)N1CCC(CNC(=O)[C@@H]2CCCN2C(=O)OCc2ccccc2)CC1,50
16,COc1ccc(N2CCN(c3ccc(N)cn3)CC2)cc1,134 to 135
17,CCOC(=O)c1snnc1C,59 to 61
18,COC(=O)/C(=C/CC[C@H](NC(=O)OCc1ccccc1)C(=O)N[C@H](C)C(=O)OC)NC(=O)OC(C)(C)C,120 to 121
19,Cn1nc(-c2ccc(OCCCCl)cc2)ccc1=O,186 to 187
20,CC(=O)Cc1nc2ccccc2s1,118 to 119
21,CC(C)(C)OC(=O)NCCCON=C(c1ccccc1)c1cc2ccncc2[nH]1,52 to 58
22,CCCc1nc2c(N)nc3cc(Oc4ccccc4C#N)ccc3c2n1CC(C)C,230 to 232
23,O=C(O)c1csc(-c2ccc(OCC(F)(F)C(F)F)cc2)n1,170 to 173
24,COc1ccc(CN(C)CCCOc2ccc(NC(=O)c3cccc4c(=O)c5cccc(F)c5[nH]c34)c(C)c2)cc1OC,130
25,O=C(Nc1cc(Cl)c(N2CCCC2)c(Cl)c1)c1ccc(F)c(OCc2cccnc2)c1,163 to 167

row,SMILES,melting point [°C]
1,O=C1COCC(c2ccccc2)N1C(=O)Oc1ccc([N+](=O)[O-])cc1 (stereo not drawn),105 to 109
2,CC(C)(C)c1ccc(NC(=O)c2cccc3cc(Oc4cc(CO)ncn4)ccc23)cc1,202 to 203
3,C#CCCCCCCNC(=O)C(F)(F)F,29.5 to 30
4,Cc1cc(-c2cscn2)ccc1-c1cc(C(F)(F)F)nn1-c1ccc(S(C)(=O)=O)cc1,175
5,COc1ccccc1C=C1CCc2c1oc1ccc(C(=O)O)cc1c2=O,273 to 275
6,O=C1CC=C(c2ccccc2F)c2cc(Cl)ccc2N1,214 to 215
7,CCCOc1ccc(/C=C/C(=O)O)cc1-c1nc2c(c(C)nn2CCC)c(=O)[nH]1,231 to 232
8,COc1ccc(Nc2nc(NC3CCCCCC3)nc(OCC3CCCN3)n2)cc1Cl (stereo not drawn),84 to 86
9,CN(C)C=CC(=O)c1ccc(OC[C@H]2CO[C@](Cn3ccnc3)(c3ccc(Cl)cc3Cl)O2)cc1 (relative stereo),145
10,Cc1c[nH]c(=O)n(C(=O)c2ccccc2)c1=O,178 to 180
11,c1ccc(-c2cc3nc(N4CCOCC4)c4ccccc4c3nn2)cc1,214 to 216
12,COC(=O)CCCc1cc2nc(Cl)ccc2n1S(=O)(=O)c1ccc2c(c1)OCCN2C,106 to 110
13,Cc1nc2ncnn2c2c1c(O)c(O)n2C,215 to 217
14,Cc1c(Cc2cccc(C(F)(F)F)c2)sc2c(-c3cc(F)cc(C(N)=O)c3)cccc12,146 to 147
15,CCCC(=O)c1cnc2c(OCCN(C)C)cccc2c1Nc1ccccc1C,88 to 90
16,O=Cc1c2n(c3cc(Br)ccc13)CCNCC2,186 to 188
17,Cc1n[nH]c2c1C(=O)CC(c1cc(Cl)sc1Cl)C2 (stereo not drawn),167 to 168
18,OCCCOc1cccc2cccnc12,126 to 127
19,Oc1ccc(F)c(O)c1F,100 to 101
20,O=C1C=C(NC(=O)C(=O)c2cn(Cc3c(F)cccc3Cl)c3ccccc23)CO1,> 270
21,CN(C)CCc1nnc2n1-c1ccc(Cl)cc1C(c1ccccc1)NC2 (stereo not drawn),131 to 137
22,CC(=O)[NH+]([O-])C[C@@H]1CN(c2ccc(N3CCN(S(=O)(=O)CC#N)CC3)c(F)c2)C(=O)O1 (stereo partly drawn),153 to 156
23,CC(C)c1nc(N)nc(-c2ccc(F)c3ccccc23)c1Br,176 to 180
24,CCC1(CCCCCl)C(=O)Nc2ccc(F)cc21 (stereo not drawn),96 to 97
25,CC(O)c1ccc(-c2ccnc(Nc3ccc4c(c3)OCCO4)c2)cc1 (stereo not drawn),55.9 to 61.5

row,SMILES,melting point [°C]
1,CC(=O)Nc1ccc(C(=O)Oc2ccccc2)c(Cl)c1,84 to 86
2,CCOc1ccc2nc(N3CCC(OC[C@H](C)NC(C)=O)CC3)sc2c1,129 to 131
3,CCn1c(C(C#N)c2cc(C)cc(C#N)c2)c(C(C)C)c(=O)n(COC)c1=O (stereo not drawn),202 to 205
4,CCOC(=O)N1CCC(Nc2nc3ccccc3n2Cc2csc(C)n2)CC1,160
5,CCOC(=O)c1cc(C#N)c(=O)[nH]c1C,208 to 210
6,CON(C)C(=O)c1ccc(-c2ccc(C)cc2)o1,54 to 58
7,CNC(=S)N(C)NC(=O)c1cccc(F)c1,202 to 205
8,CC(c1oc2ccccc2c(=O)c1-c1cccc(F)c1)n1nc(-c2ccc3cn[nH]c3c2)c2c(N)ncnc21 (stereo not drawn),206 to 208
9,CC1(C)CCC(C)(C)C2=C1CC(C(=O)Oc1ccc(C(=O)O)cc1)C2,194 to 195
10,CCCOc1ccc(CCCOc2nn(Cc3ccccc3)cc2CC(=O)O)c(Oc2ncc(C(F)(F)F)cc2Cl)c1,96.5 to 97.5
11,COC(=O)c1ncccc1NC(=O)C(C)CSC(C)=O (stereo not drawn),54 to 56
12,Cc1ccc(-c2nc3ncccc3o2)cc1,135 to 136
13,O=C(N=NC=C(Cl)Cl)c1ccccc1,50 to 51
14,COC(=O)c1ccc(NC(=O)c2cc(C(C)C)c(C(C)C)s2)cc1F,146 to 147
15,COC(=O)CCC/C(C)=C/c1cccc2c1NCCNC2=O,175 to 176
16,COC(=O)C1=C(C)NC2=C(C(=O)CN(CC(O)COc3cccc(C)c3C)C2)C1c1c(F)ccc(Cl)c1Cl (stereo not drawn),190 to 193
17,CCOC(=S)c1ccc2sc(CCl)c(C)c2c1,95 to 96
18,CC(=O)N(CCOc1cccc2ccccc12)c1ccc(C(=O)O)cc1,182 to 183
19,CC12CCC(C1)C1(C)Oc3ccc(C(O)c4ccc5cc(C(=O)O)ccc5c4)cc3C21C (stereo not drawn),146 to 148
20,O=C(O)c1ccc2c(c1)S(=O)(=O)c1ccc(Cl)cc1C=C2,276 to 278
21,CCc1nn2ccc3c(c2c1C(C)C#N)CCO3 (stereo not drawn),86 to 88
22,CCCCCCCc1ccc(C(=O)CCCC(=O)O)cc1,101
23,CC(C)(C)CNc1nc(C#N)nc2ccc(OCc3cccnc3)cc12,156 to 158
24,COc1c(-c2ccc3cc(NS(C)(=O)=O)ccc3c2)cc(N2CCCC2=O)cc1C(C)(C)C,229 to 230
25,O=[N+]([O-])c1ccc2nc(-c3ccc(Cl)cc3)sc2c1,227 to 232

row,SMILES,melting point [°C]
1,Nc1ccc2c3c(cccc13)C(=O)N2,240 to 242
2,CCCCN1CCC(n2c(=O)[nH]c3ccc(Br)cc32)CC1,179 to 181
3,C=CCOc1cccc(C(=O)CCC(=O)OC)c1,30 to 32.5
4,Cc1cc(Cl)ccc1OCC(=O)N1Cc2ccc(C(=O)c3cccc4ccccc34)n2Cc2ccccc21,130 to 134
5,Cc1cccc(S(=O)(=O)Nc2cccnc2Nc2ccccc2)c1,161 to 162
6,COc1ccc(-c2nc(NC(C)=O)sc2-c2ccnc(NC(C)=O)c2)cc1,262 to 264
7,COC(=O)c1ccc(Oc2ccc(O)cc2)cc1,130 to 134
8,O=C1NCN(c2ccccc2)C12CCN(CC1=Cc3cc(Cl)ccc3CC1)CC2,191 to 192
9,BrC(Br)(Br)c1nnnn1-c1ccccc1,141 to 142
10,CS(=O)(=O)N[C@@H](CCCCN)C(=O)NC[C@H](CC1(C(=O)N[C@@H](Cc2ccc(O)cc2)C(=O)O)CCCC1)C(=O)O,237 to 238
11,OCc1ccc(-c2ccc(CO)cc2)cc1,195 to 197
12,OCC1OC(n2cnc3c(Nn4cccc4)ncnc32)C(O)C1O (stereo not drawn),193 to 195
13,O=C1NC(=O)C(=Cc2ccc3c(c2)CN(c2ccccn2)CCO3)S1,260 to 261
14,CC(CN1CCCC1)N1c2ccccc2Sc2ccc(C(=O)NCCC(C)(C)C)cc21 (racemic),138
15,COC(=O)C(C)Oc1ccc(NC(=O)OCCOC(=O)Nc2ccc(OC(C)C(=O)OC)cc2)cc1 (stereo not drawn),98 to 100
16,C#CC(C)OS(=O)(=O)c1ccc(C)cc1 (stereo not drawn),49 to 51
17,O=C1c2cccc3cccc(c23)C(O)N1CCN1CCC(Cc2ccccc2)CC1 (stereo not drawn),153 to 155
18,Nc1ncc(-c2nc(N3CCOCC3)c3sc(NS(=O)(=O)c4cccc(C=CC(=O)NO)c4)cc3n2)cn1,> 300
19,COc1cc(C2CCN(CC(N)=O)CC2)ccc1Nc1ncc2ccc(-c3ccccc3N(C)S(C)(=O)=O)n2n1,103 to 112
20,CCN(CC)c1ccc(C(c2ccc(N(C)C)cc2C(=O)O)c2ccc(N(C)C)cc2N(C)C)cc1 (stereo not drawn),128 to 130
21,CCOC(=O)N1CCC(C(=O)O)=Cc2ccccc21,176
22,O=[N+]([O-])C(Br)(Br)CCO,22 to 25
23,CC(=O)Nc1cc(F)cc2c1OCCC21SC(=O)NC1=O (stereo not drawn),278 to 280

# — a melting point compilation (Tetko et al.; mined from patent text by program, amines drawn as free bases though some values may be those of a salt)
